{"source": "patent US8765433B2", "about": "“Alcohol dehydrogenases (ADH) useful for fermentive production of lower alkyl alcohols” (priority 2009, dated 2014)", "assay_type_in_all_cases": "biochemical", "key": {"[1]": {"biological_target": "T1, Saccharomyces cerevisiae ADH6 (ScADH6), SEQ ID NO: 22 (Saccharomyces cerevisiae, UniProt Q04894)", "T1 sequence (Q04894 1-360)": "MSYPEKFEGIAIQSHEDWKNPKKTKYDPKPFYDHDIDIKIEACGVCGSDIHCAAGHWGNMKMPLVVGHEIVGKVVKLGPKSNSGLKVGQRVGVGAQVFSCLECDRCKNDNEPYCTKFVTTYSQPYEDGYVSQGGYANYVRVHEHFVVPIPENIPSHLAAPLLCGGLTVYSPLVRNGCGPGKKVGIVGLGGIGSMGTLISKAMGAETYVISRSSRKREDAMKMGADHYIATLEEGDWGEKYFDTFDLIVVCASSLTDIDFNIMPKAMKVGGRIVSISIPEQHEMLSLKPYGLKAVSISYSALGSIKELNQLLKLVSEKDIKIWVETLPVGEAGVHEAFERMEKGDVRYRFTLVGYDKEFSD", "test": "isobutyraldehyde reduction kinetics (A340, initial rates)", "conditions": "relative to SadB", "description": "(§1) This example describes preparation of ADH-gene constructs for over-expression/purification and measurement of enzyme activities using a time-course assay. Horse-liver ADH (HLADH; A-6128) was purchased from Sigma. Achromobacter xylosoxidans SadB (SadB), Saccharomyces cerevisiae ADH6 (ScADH6) and ADH7 (ScADH7), Entamoeba histolytica ADH1 (EhADH1), Bos Taurus Aldehyde Reductase (BtARD), Beijerinckia indica subsp. Indica ATCC 9039 (BiADH), Clostridium beijerinckii ADH (CbADH), Rana perezi ADH8 (RpADH8), Rattus norvegicus ADH1 (RnADH1), Thermus sp. ATN1 ADH (TADH), Phenylobacterium zucineum HLK1 ADH (PzADH), Methylocella silvestris BL2 ADH (MsADH), Acinetobacter baumannii AYE ADH (AbADH), Geobacillus sp. WCH70 ADH (GbADH), Vanderwaltozyma polyspora DSM 70294 ADH (VpADH), Mucor circinelloides ADH (McADH), and Rhodococcus erythropolis PR4ADH (ReADH) were the candidates for which subclones were prepared for protein expression and purification.\n(§2) As a routine practice, the crude extracts and purified proteins were assayed for butanol oxidation activity, in order to ensure that the recombinant proteins were active throughout the purification process. […] Alcohol oxidation activities were carried out in 50 mM sodium phosphate buffer at pH 8.8 and aldehyde reduction reactions were assayed in 190 mM potassium phosphate buffer at pH 7.0. Depending on the nature of reaction being carried out, the enzyme and cofactor stocks were diluted in the reaction buffers at the respective pHs. Either buffer or cell extract prepared from the proprietary E. coli strain (with no ADH plasmid) was used as the negative control for assays with purified protein and cell-free extracts, respectively.\n(§3) Kinetic constants of the ADH enzymes were calculated and compared to identify those candidate ADH enzymes with the most desirable properties for the conversion of isobutyraldehyde to isobutanol in the last step of the engineered pathway for isobutanol production. The assays for determining the kinetic constants were carried out using initial rates from the assays described above. […] The concentration of a given enzyme was such that it was conducive for the measurement of initial velocities over a 1-min time course. For each enzyme, Michaelis-Menten plots were generated with a broad range of substrate concentrations. Rough estimates of KM were obtained, based on which the assays were redesigned so as to use substrate concentrations in the range 0.5 to 10 times the KM value, to be able to obtain the appropriate kinetic constants. […] Reactions with isobutanol substrate were performed at 30° C. in 50 mM Sodium phosphate buffer, pH 8.8, containing 7.5 mM NAD. The Enzyme kinetics module (Version 1.3) of SigmaPlot 11 (Systat Software, Inc.) was used to fit data to Michaelis-Menten equations and calculate the kinetic constants. The kcat/KM is derived from the individual numbers of kcat and KM and not an experimentally determined value.\n(§4) For those enzymes marked with an asterisk in Table 7, at least 3 assays were performed with separate preparations of the enzyme. All other numbers are values from either one assay or are averages from 2 assays performed with the same enzyme sample."}, "[2]": {"biological_target": "T2, Saccharomyces cerevisiae ADH7 (ScADH7), SEQ ID NO: 23 (Saccharomyces cerevisiae, UniProt P25377)", "T2 sequence (P25377 1-361)": "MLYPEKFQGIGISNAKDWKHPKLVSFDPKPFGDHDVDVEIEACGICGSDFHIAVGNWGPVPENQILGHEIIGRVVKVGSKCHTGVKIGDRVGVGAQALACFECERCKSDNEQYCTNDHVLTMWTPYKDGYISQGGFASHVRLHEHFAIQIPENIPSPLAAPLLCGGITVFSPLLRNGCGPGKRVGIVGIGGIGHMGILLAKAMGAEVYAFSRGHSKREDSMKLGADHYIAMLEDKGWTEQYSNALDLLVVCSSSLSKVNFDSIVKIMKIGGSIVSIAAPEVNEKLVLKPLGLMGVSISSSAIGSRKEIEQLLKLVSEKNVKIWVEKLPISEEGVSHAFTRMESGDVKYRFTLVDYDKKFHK", "test": "isobutyraldehyde reduction kinetics (A340, initial rates)", "description": "as §1, §2, §3, §4"}, "[3]": {"biological_target": "Achromobacter xylosoxidans SadB (SadB), SEQ ID NO: 26", "test": "isobutyraldehyde reduction kinetics (A340, initial rates)", "description": "as §1, §2, §3, §4"}, "[4]": {"biological_target": "T3, horse liver ADH (HLADH), SEQ ID NO: 21 (Equus caballus, UniProt P00327)", "T3 construct": "purchased Sigma A-6128", "T3 sequence (P00327 whole entry)": "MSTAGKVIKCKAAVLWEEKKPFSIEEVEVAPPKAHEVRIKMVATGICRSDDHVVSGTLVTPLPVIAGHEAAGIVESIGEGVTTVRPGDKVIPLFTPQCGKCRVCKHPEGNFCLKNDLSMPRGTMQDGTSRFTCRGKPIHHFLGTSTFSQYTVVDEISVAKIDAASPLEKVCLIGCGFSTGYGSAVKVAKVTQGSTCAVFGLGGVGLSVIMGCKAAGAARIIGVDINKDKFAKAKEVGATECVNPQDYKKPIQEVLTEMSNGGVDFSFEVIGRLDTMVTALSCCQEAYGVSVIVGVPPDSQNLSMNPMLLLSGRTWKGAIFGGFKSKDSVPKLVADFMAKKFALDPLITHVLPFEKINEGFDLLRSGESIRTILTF", "test": "isobutyraldehyde reduction kinetics (A340, initial rates)", "conditions": "relative to SadB", "description": "as §1, §2, §3, §4"}, "[5]": {"biological_target": "T4, Beijerinckia indica subsp. Indica ATCC 9039 ADH (BiADH), SEQ ID NO: 31 (Beijerinckia indica, UniProt B2IGW3)", "T4 sequence (B2IGW3 1-347)": "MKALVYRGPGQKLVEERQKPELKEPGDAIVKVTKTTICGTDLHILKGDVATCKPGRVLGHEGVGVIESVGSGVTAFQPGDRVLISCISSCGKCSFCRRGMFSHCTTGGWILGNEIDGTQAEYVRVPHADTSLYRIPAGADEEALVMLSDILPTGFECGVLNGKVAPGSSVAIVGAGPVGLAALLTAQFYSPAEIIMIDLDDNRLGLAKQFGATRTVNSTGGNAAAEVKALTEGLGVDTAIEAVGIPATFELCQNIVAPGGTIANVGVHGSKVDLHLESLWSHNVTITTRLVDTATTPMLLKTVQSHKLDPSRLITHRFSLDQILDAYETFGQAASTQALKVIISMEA", "description": "as §1, §2, §3, §4"}}}
{"smiles": "CC(C)CO", "note": "[isobutanol, 2-methylpropan-1-ol]", "values": [{"measurement": "KI as a percentage of the same parameter for SadB", "setting": "[1]", "result": 650, "unit": "%"}, {"measurement": "Ki", "setting": "[2]; read-out: KI (Isobutanol)", "result": 88, "unit": "mM"}, {"measurement": "KI as a percentage of the same parameter for SadB", "setting": "[2]; relative to SadB", "result": 49, "unit": "%"}, {"measurement": "KI as a percentage of the same parameter for SadB", "setting": "[3]; reference (SadB itself)", "result": 100, "unit": "%"}, {"measurement": "KI as a percentage of the same parameter for SadB", "setting": "[4]", "result": 1, "unit": "%"}, {"measurement": "KI as a percentage of the same parameter for SadB", "setting": "[5]; relative to SadB", "result": 20, "unit": "%"}]}
{"smiles": "CC(C)C=O", "note": "[isobutyraldehyde]", "values": [{"measurement": "KM as a percentage of the same parameter for SadB", "setting": "[1]", "result": 60, "unit": "%"}, {"measurement": "kcat as a percentage of the same parameter for SadB", "setting": "[1]", "result": 43, "unit": "%"}, {"measurement": "kcat/KM as a percentage of the same parameter for SadB", "setting": "[1]", "result": 77, "unit": "%"}, {"measurement": "KM as a percentage of the same parameter for SadB", "setting": "[2]; relative to SadB", "result": 30, "unit": "%"}, {"measurement": "kcat as a percentage of the same parameter for SadB", "setting": "[2]; relative to SadB", "result": 33, "unit": "%"}, {"measurement": "kcat/KM as a percentage of the same parameter for SadB", "setting": "[2]; relative to SadB", "result": 114, "unit": "%"}, {"measurement": "Km", "setting": "[3]; 30° C., pH 7.0, 200 μM NADH, read-out: KM (Isobutanal)", "result": 1000, "unit": "µM"}, {"measurement": "kcat", "setting": "[3]; isobutyraldehyde reduction, 30° C., pH 7.0, 200 μM NADH", "result": 109, "unit": "s⁻¹"}, {"measurement": "KM as a percentage of the same parameter for SadB", "setting": "[3]; reference (SadB itself)", "result": 100, "unit": "%"}, {"measurement": "kcat as a percentage of the same parameter for SadB", "setting": "[3]; reference (SadB itself)", "result": 100, "unit": "%"}, {"measurement": "kcat/KM as a percentage of the same parameter for SadB", "setting": "[3]; reference (SadB itself)", "result": 100, "unit": "%"}, {"measurement": "KM as a percentage of the same parameter for SadB", "setting": "[4]", "result": 10, "unit": "%"}, {"measurement": "kcat as a percentage of the same parameter for SadB", "setting": "[4]", "result": 7, "unit": "%"}, {"measurement": "kcat/KM as a percentage of the same parameter for SadB", "setting": "[4]", "result": 78, "unit": "%"}, {"measurement": "catalytic efficiency for isobutyraldehyde reduction, BiADH relative to SadB", "setting": "[5]; compared with SadB", "result": "~12", "unit": "times"}, {"measurement": "KM as a percentage of the same parameter for SadB", "setting": "[5]; relative to SadB", "result": 20, "unit": "%"}, {"measurement": "kcat as a percentage of the same parameter for SadB", "setting": "[5]; relative to SadB", "result": 260, "unit": "%"}, {"measurement": "kcat/KM as a percentage of the same parameter for SadB", "setting": "[5]; relative to SadB", "result": 1192, "unit": "%"}]}
